{"source": "PubChem BioAssay AID1259409", "about": "(Chemical Carcinogenesis Research Information System (CCRIS), 2018)", "origin": "cited, not measured here", "test_system": "rodent chemically induced tumor inhibition, incidence and multiplicity", "assay": "CCRIS tumor inhibitor studies", "settings": "Route [Inhibitor]: ORAL, Promoter: NONE USED"}
{"smiles": "CCNC(=O)/C=C(C)/C=C/C=C(C)/C=C/C1=C(C)CCCC1(C)C", "values": [{"measurement": "tumour outcome (control, treated, inhibition, significance)", "setting": "Carcinogen: 1,2-DIMETHYLHYDRAZINE, 540-73-8, Dose [Inhibitor]: 2 MMOL/KG DIET DAILY STARTING 12 D AFTER CARCINOGEN TREATMENT THROUGH ABOUT 8 MO AFTER CARCINOGEN DOSE (STUDY DURATION:, Species: RAT, Strain/Sex: F344/MALE, Target Tissue: Type of Lesion: COLON: ADENOCARCINOMA, Dose [Carcinogen]: 150 MG/KG BW ONCE", "value": "10/39 (26%), 6/30 (20%), 23%, not significant"}, {"measurement": "tumour outcome (control, treated, inhibition, significance)", "setting": "Carcinogen: 1,2-DIMETHYLHYDRAZINE, 540-73-8, Dose [Inhibitor]: 2 MMOL/KG DIET DAILY STARTING 12 D AFTER CARCINOGEN TREATMENT THROUGH ABOUT 8 MO AFTER CARCINOGEN DOSE (STUDY DURATION:, Species: RAT, Strain/Sex: F344/MALE, Target Tissue: Type of Lesion: COLON: ADENOMA, Dose [Carcinogen]: 150 MG/KG BW ONCE", "value": "23/39 (59%), 15/30 (50%), 15%, not significant"}, {"measurement": "tumour outcome (control, treated, inhibition, significance)", "setting": "Carcinogen: N-(4-(5-NITRO-2-FURYL)-2-THIAZOLYL)FORMAMIDE, 24554-26-5, Dose [Inhibitor]: 327 MG/KG DIET DAILY FOR 39 WK STARTING ONE WK FOLLOWING THE TERMINATION OF CARCINOGEN ADMINISTRATION (STUDY DURATION: 5, Species: RAT, Strain/Sex: F344/FEMALE, Target Tissue: Type of Lesion: URINARY BLADDER: CARCINOMA, Dose [Carcinogen]: 2 G/KG IN DIET DAILY FOR 10 WK", "value": "105/200 (53%), 63/100 (63%), -19%, p 0.0843"}, {"measurement": "tumour outcome (control, treated, inhibition, significance)", "setting": "Carcinogen: N-(4-(5-NITRO-2-FURYL)-2-THIAZOLYL)FORMAMIDE, 24554-26-5, Dose [Inhibitor]: 327 MG/KG DIET DAILY FOR 39 WK STARTING ONE WK FOLLOWING THE TERMINATION OF CARCINOGEN ADMINISTRATION (STUDY DURATION: 5, Species: RAT, Strain/Sex: F344/FEMALE, Target Tissue: Type of Lesion: URINARY BLADDER: PAPILLOMA, Dose [Carcinogen]: 2 G/KG IN DIET DAILY FOR 10 WK", "value": "15/200 (8%), 1/100 (1%), 88%, p 0.0182"}, {"measurement": "tumour outcome (control, treated, inhibition, significance)", "setting": "Carcinogen: N-(4-(5-NITRO-2-FURYL)-2-THIAZOLYL)FORMAMIDE, 24554-26-5, Dose [Inhibitor]: 327 MG/KG/D IN DIET FOR 39 WK STARTING 1 WK POST CARCINOGEN DOSE TREATMENT (STUDY DURATION: 50 WK), Species: RAT, Strain/Sex: F344/FEMALE, Target Tissue: Type of Lesion: URINARY BLADDER: PAPILLOMA, Dose [Carcinogen]: 2 G/KG/D IN DIET FOR 10 WK", "value": "15/200 (8%), 1/100 (1%), 87%, p=0.0182"}, {"measurement": "tumour outcome (control, treated, inhibition, significance)", "setting": "Carcinogen: N-(4-(5-NITRO-2-FURYL)-2-THIAZOLYL)FORMAMIDE, 24554-26-5, Dose [Inhibitor]: 327 MG/KG/D IN DIET FOR 39 WK STARTING 1 WK POST CARCINOGEN TREATMENT (STUDY DURATION: 50 WK), Species: RAT, Strain/Sex: F344/FEMALE, Target Tissue: Type of Lesion: URINARY BLADDER: CARCINOMA, Dose [Carcinogen]: 2 G/KG/D IN DIET FOR 10 WK", "value": "105/200 (53%), 63/100 (63%), -19%, p=0.0843"}, {"measurement": "tumour outcome (control, treated, inhibition, significance)", "setting": "Carcinogen: N-(4-(5-NITRO-2-FURYL)-2-THIAZOLYL)FORMAMIDE, 24554-26-5, Dose [Inhibitor]: 654 MG/KG DIET DAILY FOR 39 WK STARTING ONE WK FOLLOWING THE TERMINATION OF CARCINOGEN ADMINISTRATION (STUDY DURATION: 5, Species: RAT, Strain/Sex: F344/FEMALE, Target Tissue: Type of Lesion: URINARY BLADDER: CARCINOMA, Dose [Carcinogen]: 2 G/KG IN DIET DAILY FOR 10 WK", "value": "105/200 (53%), 78/100 (78%), -47%, p 0.00002"}, {"measurement": "tumour outcome (control, treated, inhibition, significance)", "setting": "Carcinogen: N-(4-(5-NITRO-2-FURYL)-2-THIAZOLYL)FORMAMIDE, 24554-26-5, Dose [Inhibitor]: 654 MG/KG DIET DAILY FOR 39 WK STARTING ONE WK FOLLOWING THE TERMINATION OF CARCINOGEN ADMINISTRATION (STUDY DURATION: 5, Species: RAT, Strain/Sex: F344/FEMALE, Target Tissue: Type of Lesion: URINARY BLADDER: PAPILLOMA, Dose [Carcinogen]: 2 G/KG IN DIET DAILY FOR 10 WK", "value": "15/200 (8%), 12/100 (12%), -50%, p 0.1989"}, {"measurement": "tumour outcome (control, treated, inhibition, significance)", "setting": "Carcinogen: N-(4-(5-NITRO-2-FURYL)-2-THIAZOLYL)FORMAMIDE, 24554-26-5, Dose [Inhibitor]: 654 MG/KG IN DIET FOR 39 WK STARTING 1 WK POST CARCINOGEN TREATMENT (STUDY DURATION: 50 WK), Species: RAT, Strain/Sex: F344/FEMALE, Target Tissue: Type of Lesion: URINARY BLADDER: PAPILLOMA, Dose [Carcinogen]: 2 G/KG/D IN DIET FOR 10 WK", "value": "15/200 (7.5%), 12/100 (12%), -60%, p=0.1989"}, {"measurement": "tumour outcome (control, treated, inhibition, significance)", "setting": "Carcinogen: N-(4-(5-NITRO-2-FURYL)-2-THIAZOLYL)FORMAMIDE, 24554-26-5, Dose [Inhibitor]: 654 MG/KG/D IN DIET FOR 39 WK STARTING 1 WK POST CARCINOGEN TREATMENT (STUDY DURATION: 50 WK), Species: RAT, Strain/Sex: F344/FEMALE, Target Tissue: Type of Lesion: URINARY BLADDER: CARCINOMA, Dose [Carcinogen]: 2 G/KG/D IN DIET FOR 10 WK", "value": "105/200 (53%), 78/100 (78%), -47%, p=0.00002"}, {"measurement": "tumour outcome (control, treated, inhibition, significance)", "setting": "Carcinogen: N-BUTYL-N-(4-HYDROXYBUTYL)NITROSAMINE, 3817-11-6, Dose [Inhibitor]: 0.5 MMOL/KG DIET DAILY FOR 16 WK STARTING 7 D AFTER FINAL CARCINOGEN DOSE (STUDY DURATION: 6 MO), Species: MOUSE, Strain/Sex: B6D2F1/MALE, Target Tissue: Type of Lesion: URINARY BLADDER: CARCINOMA, Dose [Carcinogen]: 5 OR 10 MG 2/WK FOR 9 WK", "value": "36/97 (37%), 25/76 (33%), 11%, not significant"}, {"measurement": "tumour outcome (control, treated, inhibition, significance)", "setting": "Carcinogen: N-BUTYL-N-(4-HYDROXYBUTYL)NITROSAMINE, 3817-11-6, Dose [Inhibitor]: 1 MMOL/KG DIET DAILY FOR 16 WK STARTING 7 D AFTER FINAL CARCINOGEN DOSE (STUDY DURATION: 6 MO), Species: MOUSE, Strain/Sex: B6D2F1/MALE, Target Tissue: Type of Lesion: URINARY BLADDER: CARCINOMA, Dose [Carcinogen]: 5 OR 10 MG 2/WK FOR 9 WK", "value": "36/97 (37%), 16/75 (21%), 43%, p<0.025"}, {"measurement": "tumour outcome (control, treated, inhibition, significance)", "setting": "Carcinogen: N-BUTYL-N-(4-HYDROXYBUTYL)NITROSAMINE, 3817-11-6, Dose [Inhibitor]: 1.5 MMOL/KG DIET DAILY FOR 153 D STARTING ONE WK AFTER THE FINAL CARCINOGEN DOSE (STUDY DURATION: 210 D), Species: MOUSE, Strain/Sex: BDF1/MALE, Target Tissue: Type of Lesion: URINARY BLADDER: TRANSITIONAL CELL CARCINOMA, Dose [Carcinogen]: 7.5 MG 1/WK FOR 8 WK", "value": "35/99 (35%), 21/99 (21%), 40%, p<0.05"}, {"measurement": "tumour outcome (control, treated, inhibition, significance)", "setting": "Carcinogen: N-BUTYL-N-(4-HYDROXYBUTYL)NITROSAMINE, 3817-11-6, Dose [Inhibitor]: 1.5 MMOL/KG IN DIET FOR 153 D STARTING 1 WK AFTER LAST CARCINOGEN DOSE (STUDY DURATION: 210 D), Species: MOUSE, Strain/Sex: DBF1/MALE, Target Tissue: Type of Lesion: URINARY BLADDER: TRANSITIONAL CELL CARCINOMA, Dose [Carcinogen]: 7.5 MG 1/WK FOR 8 WK", "value": "35/99 (35%), 21/99 (21%), 40%, p<0.05"}, {"measurement": "tumour outcome (control, treated, inhibition, significance)", "setting": "Carcinogen: N-BUTYL-N-(4-HYDROXYBUTYL)NITROSAMINE, 3817-11-6, Dose [Inhibitor]: 2 MMOL/KG DIET DAILY FOR 17 WK STARTING 7 D AFTER FINAL CARCINOGEN DOSE (STUDY DURATION: 6 MO), Species: RAT, Strain/Sex: F344/MALE, Target Tissue: Type of Lesion: URINARY BLADDER: TRANSITIONAL CELL CARCINOMA, Dose [Carcinogen]: 200 MG 2/WK FOR 8 WK", "value": "55/60 (92%), 25/30 (83%), 10%, not significant"}, {"measurement": "tumour outcome (control, treated, inhibition, significance)", "setting": "Carcinogen: N-BUTYL-N-(4-HYDROXYBUTYL)NITROSAMINE, 3817-11-6, Dose [Inhibitor]: 2 MMOL/KG DIET DAILY FOR 19 WK STARTING 7 D AFTER FINAL CARCINOGEN DOSE (STUDY DURATION: 6 MO), Species: RAT, Strain/Sex: F344/FEMALE, Target Tissue: Type of Lesion: URINARY BLADDER: TRANSITIONAL CELL CARCINOMA, Dose [Carcinogen]: 150 MG 2/WK FOR 6 WK", "value": "28/80 (35%), 5/40 (12%), 66%, p<0.01"}, {"measurement": "tumour outcome (control, treated, inhibition, significance)", "setting": "Carcinogen: N-METHYL-N-NITROSOUREA, 684-93-5, Dose [Inhibitor]: 2 MMOL/KG DIET DAILY STARTING 12 D AFTER CARCINOGEN TREATMENT THROUGH ABOUT 8 MO AFTER CARCINOGEN DOSE (STUDY DURATION:, Species: RAT, Strain/Sex: F344/MALE, Target Tissue: Type of Lesion: COLON: ADENOCARCINOMA, Dose [Carcinogen]: 2.5 MG 1/WK FOR 2 WK", "value": "5/39 (13%), 9/30 (30%), -131%, not significant"}]}
